Source: BindingDB's records for doi:10.1016/j.bmcl.2009.07.032 (Amgen, 2009)

Assay: Antagonist activity against human CXCR3 expressed in human PBMC assessed as inhibition of cell migration in response to MIG in buffer

| IC50 | Structure (SMILES) |
| --- | --- |
| 0.6 nM | CCS(=O)(=O)CCN(C(=O)Cc1ccc(F)c(C(F)(F)F)c1)[C@H](C)c1nc2ncccc2c(=O)n1-c1ccc(OCC(F)(F)F)cc1 [(R)-N-(2-(ethylsulfonyl)ethyl)-2-(4-fluoro-3-(trifluoromethyl)phenyl)-N-(1-(4-oxo-3-(4-(2,2,2-trifluoroethoxy)phenyl)-3,4-dihydropyrido[2,3-d]pyrimidin-2-yl)ethyl)acetamide] |

Assay: Antagonist activity against human CXCR3 expressed in human PBMC assessed as inhibition of cell migration in response to ITAC in RPMI buffer

| IC50 | Structure (SMILES) |
| --- | --- |
| 0.8 nM | CCS(=O)(=O)CCN(C(=O)Cc1ccc(F)c(C(F)(F)F)c1)[C@H](C)c1nc2ncccc2c(=O)n1-c1ccc(OCC(F)(F)F)cc1 [(R)-N-(2-(ethylsulfonyl)ethyl)-2-(4-fluoro-3-(trifluoromethyl)phenyl)-N-(1-(4-oxo-3-(4-(2,2,2-trifluoroethoxy)phenyl)-3,4-dihydropyrido[2,3-d]pyrimidin-2-yl)ethyl)acetamide] |

Assay: Antagonist activity against human CXCR3 expressed in human PBMC assessed as inhibition of cell migration in response to IP10 in buffer

| IC50 | Structure (SMILES) |
| --- | --- |
| 0.4 nM | CCS(=O)(=O)CCN(C(=O)Cc1ccc(F)c(C(F)(F)F)c1)[C@H](C)c1nc2ncccc2c(=O)n1-c1ccc(OCC(F)(F)F)cc1 [(R)-N-(2-(ethylsulfonyl)ethyl)-2-(4-fluoro-3-(trifluoromethyl)phenyl)-N-(1-(4-oxo-3-(4-(2,2,2-trifluoroethoxy)phenyl)-3,4-dihydropyrido[2,3-d]pyrimidin-2-yl)ethyl)acetamide] |

Assay: Antagonist activity against human CXCR3 expressed in human PBMC assessed as inhibition of cell migration in response to ITAC in plasma

| Structure (SMILES) | IC50 |
| --- | --- |
| CCOc1ccc(-n2c([C@@H](C)N(Cc3cc(C)no3)C(=O)Cc3ccc(F)c(C(F)(F)F)c3)nc3ncccc3c2=O)cc1 [(R)-N-(1-(3-(4-ethoxyphenyl)-4-oxo-3,4-dihydropyrido[2,3-d]pyrimidin-2-yl)ethyl)-2-(4-fluoro-3-(trifluoromethyl)phenyl)-N-((3-methylisoxazol-5-yl)methyl)acetamide] | 59 nM |
| CCOc1ccc(-n2c([C@@H](C)N(Cc3cccnc3)C(=O)Cc3ccc(F)c(C(F)(F)F)c3)nc3cnccc3c2=O)cc1 [(R)-N-(1-(3-(4-ethoxyphenyl)-4-oxo-3,4-dihydropyrido[3,4-d]pyrimidin-2-yl)ethyl)-2-(4-fluoro-3-(trifluoromethyl)phenyl)-N-(pyridin-3-ylmethyl)acetamide] | 23 nM |
| CCOc1ccc(-n2c([C@@H](C)N(C[C@@H]3CCCN3C(C)C)C(=O)Cc3ccc(F)c(C(F)(F)F)c3)nc3ncccc3c2=O)cc1 [N-((R)-1-(3-(4-ethoxyphenyl)-4-oxo-3,4-dihydropyrido[2,3-d]pyrimidin-2-yl)ethyl)-2-(4-fluoro-3-(trifluoromethyl)phenyl)-N-(((S)-1-isopropylpyrrolidin-2-yl)methyl)acetamide] | 80 nM |
| CCOc1ccc(-n2c([C@@H](C)N(Cc3ccc[n+]([O-])c3)C(=O)Cc3ccc(OC(F)(F)F)cc3)nc3ncccc3c2=O)cc1 [(R)-3-((N-(1-(3-(4-ethoxyphenyl)-4-oxo-3,4-dihydropyrido[2,3-d]pyrimidin-2-yl)ethyl)-2-(4-(trifluoromethoxy)phenyl)acetamido)methyl)pyridine 1-oxide] | 58 nM |
| CCOc1ccc(-n2c([C@@H](C)N(C(=O)Cc3ccc(F)c(C(F)(F)F)c3)C3CCN(C(C)=O)CC3)nc3ncccc3c2=O)cc1 [(R)-N-(1-acetylpiperidin-4-yl)-N-(1-(3-(4-ethoxyphenyl)-4-oxo-3,4-dihydropyrido[2,3-d]pyrimidin-2-yl)ethyl)-2-(4-fluoro-3-(trifluoromethyl)phenyl)acetamide] | 131 nM |
| CCOc1ccc(-n2c([C@@H](C)N(C(=O)Cc3ccc(F)c(C(F)(F)F)c3)C3CCOCC3)nc3ncccc3c2=O)cc1 [(R)-N-(1-(3-(4-ethoxyphenyl)-4-oxo-3,4-dihydropyrido[2,3-d]pyrimidin-2-yl)ethyl)-2-(4-fluoro-3-(trifluoromethyl)phenyl)-N-(tetrahydro-2H-pyran-4-yl)acetamide] | 162 nM |
| CCOc1ccc(-n2c([C@@H](C)N(Cc3cccnc3)C(=O)Cn3cnc(C(F)(F)F)c3)nc3ccccc3c2=O)cc1 [(R)-N-(1-(3-(4-ethoxyphenyl)-4-oxo-3,4-dihydroquinazolin-2-yl)ethyl)-N-(pyridin-3-ylmethyl)-2-(4-(trifluoromethyl)-1H-imidazol-1-yl)acetamide] | 450 nM |

Stronger by IC50, values ahead:

| IC50 | Structure (SMILES) |
| --- | --- |
| 22 nM | CCOc1ccc(-n2c([C@@H](C)N(CCS(=O)(=O)CC)C(=O)Cc3ccc(F)c(C(F)(F)F)c3)nc3ncccc3c2=O)cc1 [(R)-N-(1-(3-(4-ethoxyphenyl)-4-oxo-3,4-dihydropyrido[2,3-d]pyrimidin-2-yl)ethyl)-N-(2-(ethylsulfonyl)ethyl)-2-(4-fluoro-3-(trifluoromethyl)phenyl)acetamide] |
| 20 nM | CCOc1ccc(-n2c([C@@H](C)N(Cc3cccnc3)C(=O)Cc3ccc(F)c(C(F)(F)F)c3)nc3ncccc3c2=O)cc1 [(R)-N-(1-(3-(4-ethoxyphenyl)-4-oxo-3,4-dihydropyrido[2,3-d]pyrimidin-2-yl)ethyl)-2-(4-fluoro-3-(trifluoromethyl)phenyl)-N-(pyridin-3-ylmethyl)acetamide] |
| 20 nM | CCOc1ccc(-n2c([C@@H](C)N(C[C@H]3CCCN3)C(=O)Cc3ccc(F)c(C(F)(F)F)c3)nc3ncccc3c2=O)cc1 [N-((R)-1-(3-(4-ethoxyphenyl)-4-oxo-3,4-dihydropyrido[2,3-d]pyrimidin-2-yl)ethyl)-2-(4-fluoro-3-(trifluoromethyl)phenyl)-N-((R)-pyrrolidin-2-ylmethyl)acetamide] |
| 20 nM | CCOc1ccc(-n2c([C@@H](C)N(CC3CCN(C)CC3)C(=O)Cc3ccc(F)c(C(F)(F)F)c3)nc3ncccc3c2=O)cc1 [(R)-N-(1-(3-(4-ethoxyphenyl)-4-oxo-3,4-dihydropyrido[2,3-d]pyrimidin-2-yl)ethyl)-2-(4-fluoro-3-(trifluoromethyl)phenyl)-N-((1-methylpiperidin-4-yl)methyl)acetamide] |
| 17 nM | CCOc1ccc(-n2c([C@@H](C)N(Cc3cccnc3)C(=O)Cc3cc(C(F)(F)F)cc(C(F)(F)F)c3)nc3ccccc3c2=O)cc1 [(R)-2-(3,5-bis(trifluoromethyl)phenyl)-N-(1-(3-(4-ethoxyphenyl)-4-oxo-3,4-dihydroquinazolin-2-yl)ethyl)-N-(pyridin-3-ylmethyl)acetamide] |
| 15 nM | CCS(=O)(=O)CCN(C(=O)Cc1ccc(F)c(C(F)(F)F)c1)[C@H](C)c1nc2ncccc2c(=O)n1-c1ccc(OCC(F)(F)F)cc1 [(R)-N-(2-(ethylsulfonyl)ethyl)-2-(4-fluoro-3-(trifluoromethyl)phenyl)-N-(1-(4-oxo-3-(4-(2,2,2-trifluoroethoxy)phenyl)-3,4-dihydropyrido[2,3-d]pyrimidin-2-yl)ethyl)acetamide] |
| 10 nM | CCOc1ccc(-n2c([C@@H](C)N(C[C@H]3CCCN3C(C)C)C(=O)Cc3ccc(F)c(C(F)(F)F)c3)nc3ncccc3c2=O)cc1 [N-((R)-1-(3-(4-ethoxyphenyl)-4-oxo-3,4-dihydropyrido[2,3-d]pyrimidin-2-yl)ethyl)-2-(4-fluoro-3-(trifluoromethyl)phenyl)-N-(((R)-1-isopropylpyrrolidin-2-yl)methyl)acetamide] |
| 5 nM | CCOc1ccc(-n2c([C@@H](C)N(C(=O)Cc3ccc(F)c(C(F)(F)F)c3)C3CCN(C(C)C)CC3)nc3ncccc3c2=O)cc1 [(R)-N-(1-(3-(4-ethoxyphenyl)-4-oxo-3,4-dihydropyrido[2,3-d]pyrimidin-2-yl)ethyl)-2-(4-fluoro-3-(trifluoromethyl)phenyl)-N-(1-isopropylpiperidin-4-yl)acetamide] |
